Data on four compounds can be found in patent publication US7288654B2, “Fused-ring pyridine derivative, process for producing the same, and use” (Takeda Pharmaceutical Company Ltd, priority 2003, dated 2007).

SMILES strings stand for the structures.

The experiment deals with T1, human CCR5 (Homo sapiens, UniProt P51681).
T1 construct: expressed in transfected cells
T1 sequence (P51681 whole entry): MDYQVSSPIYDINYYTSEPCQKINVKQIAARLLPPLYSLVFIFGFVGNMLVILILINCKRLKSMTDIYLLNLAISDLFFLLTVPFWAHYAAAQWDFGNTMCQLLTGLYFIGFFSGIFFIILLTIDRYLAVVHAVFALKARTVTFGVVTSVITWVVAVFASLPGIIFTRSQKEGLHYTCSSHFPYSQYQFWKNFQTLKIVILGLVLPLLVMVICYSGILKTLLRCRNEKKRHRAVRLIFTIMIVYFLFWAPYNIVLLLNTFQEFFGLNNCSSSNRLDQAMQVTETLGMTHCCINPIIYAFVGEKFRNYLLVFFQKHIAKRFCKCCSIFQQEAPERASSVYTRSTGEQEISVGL
Kind of experiment: [125I]-RANTES binding inhibition in CCR5/CHO cells (CCR5 antagonist activity). The conditions noted are these: test compound 1 μM, 100 pM [125I]-RANTES, room temperature, 40 minutes. Here is the method: (1) Cloning of Human CCR5 Chemokine Receptor
Cloning of a CCR5 gene was conducted from human spleen cDNA by a PCR method. Using 0.5 ng of spleen cDNA (Toyobo Co., Ltd., QUICK-Clone cDNA) as a template, the PCR reaction was carried out in a DNA Thermal Cycler 480 (Perkin Elmer) using a TaKaRa EX Taq (Takara Shuzo Co., Ltd.) (reaction conditions: 30 cycles of treatments at 95° C. for 1 minute, at 60° C. for 1 minute, and at 75° C. for 5 minutes) by adding 25 pmol of primers, SEQ ID NO. 1 (sequence length: 34; sequence type: nucleic acid; number of chains: a single chain; topology: linear; sequence kind: other nucleic acid, synthetic DNA) described in Experimental Example (1) of WO 99/32100, and SEQ ID NO. 2 (sequence length: 34; sequence type: nucleic acid; number of chains: a single chain; topology: linear; sequence kind: other nucleic acid, synthetic DNA) described in Experimental Example (1) of WO 99/32100, respectively, which were prepared by referring to the base sequence of the CCR5 gene described by Samson et al. (Biochemistry 35 (11), 3362-3367 (1996)). The PCR products were subjected to agarose gel electrophoresis to collect DNA fragments of about 1.0 kb. Then, the CCR5 gene was cloned using an Original TA Cloning Kit (Funakoshi Co., Ltd.).
(2) Preparation of Plasmid for Expression of Human CCR5
The plasmids obtained above were digested with restriction enzymes XbaI (Takara Shuzo Co., Ltd.) and BamHI (Takara Shuzo Co., Ltd.), and subjected to agarose gel electrophoresis to collect DNA fragments of about 1.0 kb. The DNA fragments and a plasmid pcDNA3.1 (Funakoshi Co., Ltd.) for expression in animal cells, which was previously digested with XbaI and BamHI, were mixed and ligated by DNA Ligation Kit Ver.2 (Takara Shuzo Co., Ltd.). Transformation of E. coli JM109 competent cells (Takara Shuzo Co., Ltd.) gave plasmid pCKR5.
(3) Introduction of the Plasmid for Expression of Human CCR5 into CHO—K1 Cells and Expression Thereof
CHO—K1 cells grown in a 750 ml tissue culture flask (Becton Dickinson) using Ham's F12 medium (Nihon Pharmaceutical Co., Ltd.) containing 10% fetal bovine serum (Lifetech Oriental) were collected from the flask by using 0.5 g/L trypsin-0.2 g/L EDTA (Lifetech Oriental). The cells were then washed with PBS (Lifetech Oriental), centrifuged (1000 rpm, 5 minutes), and suspended in PBS. Next, DNA was introduced into the cells using Gene Pulser (Bio-Rad Laboratories Inc.) under the following conditions. […]
Subsequently, the Geneticin-resistant strains were cultured in the 96-well plate (Becton Dickinson), and then CCR5-expressing cells were selected from the resistant strains. […] The cells to which the ligand bound specifically, i.e., CCR5/CHO strains, were selected by measurement of radioactivity by γ-counter. […]
For the compound `CCCCOCCOc1ccc(-c2cnc3c(c2)C=C(C(=O)Nc2ccc([S@@+]([O-])Cc4cncn4CCC)cc2)CCCN3CC(C)C)cc1` [Compound 1, (S)-3-[4-(2-butoxyethoxy)phenyl]-10-isobutyl-N-[4-[[(1-propyl-1H-imidazol-5-yl)methyl]sulfinyl]phenyl]-7,8,9,10-tetrahydropyrido[2,3-b]azocine-6-carboxamide], the “Binding Inhibitory Ratio (%)” value is on record as 94%. To `CCCCOCCOc1ccc(-c2cnc3c(c2)C=C(C(=O)Nc2ccc([S@@+]([O-])Cc4cncn4CCC)cc2)CCCN3CCC)cc1` [Compound 2, (S)-3-[4-(2-butoxyethoxy)phenyl]-10-propyl-N-[4-[[(1-propyl-1H-imidazol-5-yl)methyl]sulfinyl]phenyl]-7,8,9,10-tetrahydropyrido[2,3-b]azocine-6-carboxamide] belongs 93%. The figure for `CCCCOCCOc1ccc(-c2cnc3c(c2)C=C(C(=O)Nc2ccc(CN(C)C4CCOCC4)cc2)CCN3CC(C)C)cc1` [Compound 4, 3-[4-(2-butoxyethoxy)phenyl]-9-isobutyl-N-[4-[[methyl(tetrahydro-2H-pyran-4-yl)amino]methyl]phenyl]-8,9-dihydro-7H-pyrido[2,3-b]azepine-6-carboxamide] is 100%; for `CCCCOCCOc1ccc(-c2cnc3c(c2)C=C(C(=O)Nc2ccc([S@@+]([O-])Cc4cncn4CCC)cc2)CCN3CC(C)C)cc1` [Compound 3, (S)-3-[4-(2-butoxyethoxy)phenyl]-9-isobutyl-N-[4-[[(1-propyl-1H-imidazol-5-yl)methyl]sulfinyl]aniline]-8,9-dihydro-7H-pyrido[2,3-b]azepine-6-carboxamide] it is 100%.
